In patent US20230000813A1, “COMPOUND FOR THE TREATMENT OF BOVINE OR SWINE RESPIRATORY DISEASE” (Intervet Inc., priority 2016, published 2023):
≈ marks a conversion by molar mass, not a printed value. Read-outs that look alike come from different tables or passages of the source.

Columns and labels:
Type in all cases: cell-based
[1] = system: 15 isolates of H. parasuis; assay: MIC50/MIC90, agar-dilution method (GC agar base); conditions: Haemophilus parasuis
Method: The in vitro activity of 3 representative compounds of this invention against 15 isolates of H. parasuis was determined. All strains were isolated from the respiratory tract of swine in different European countries The MICs for all isolates were determined by using the agar-dilution method according to CLSI document VET01-A4 [1]with the following modification: GC agar base was used instead of Mueller-Hinton agar base for the preparation of the agar-dilution plates. Results were interpreted according to the CLSI document VET01-S3.

[2] = system: 20 isolates of Histophilus (H.) somni; assay: MIC50/MIC90, broth-microdilution, European respiratory tract isolates
Method: (§1) The in vitro activity of compounds against 20 isolates of Actinobacillus (A.) pleuropneumoniae, 20 of Bordetella (B.) bronchiseptica, 20 of Histophilus (H.) somni, 40 of Mannheimia (M.) haemolytica and 40 of Pasteurella (P.) multocida collected in different European countries were determined. All bacteria were isolated from the respiratory tract of swine and cattle suffering from respiratory disease. All isolates were epidemiologically unrelated as specified by the different suppliers.
(§2) The minimum inhibitory concentrations (MIC) of compounds according to the invention were determined by the broth-microdilution method according to CLSI document VET01-A4.
(§3) Microdilution trays containing a doubling dilution series of the test compounds were used for the tests.
(§4) The MIC results were interpreted according to the CLSI documents VET01-S3. The lowest concentration of compound at which no visible growth (i.e. no turbidity) detected by the unaided eye was recorded as the MIC.

[3] = system: 40 isolates of Mannheimia (M.) haemolytica; assay: as above
Method: as §1, §2, §3, §4

[4] = system: 20 isolates of Bordetella (B.) bronchiseptica; assay: as above
Method: as §1, §2, §3, §4

[5] = system: 40 isolates of Pasteurella (P.) multocida; assay: as above
Method: as §1, §2, §3, §4

[6] = system: 20 isolates of Actinobacillus (A.) pleuropneumoniae; assay: as above
Method: as §1, §2, §3, §4

[7] = system: Mannheimia haemolytica MH 13093 (XB0472-6014.1, BRD field isolate); assay: MIC, broth-microdilution (CLSI VET01-A4)
Summary of the method: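 MIC read by eye as lowest compound concentration without visible growth (no turbidity), interpreted per CLSI VET01-S3. Doubling-dilution broth-microdilution trays, run according to CLSI VET01-A4.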

[8] = system: Mannheimia haemolytica MH 12180 (KLI-02944, BRD field isolate); assay: MIC, broth-microdilution (CLSI VET01-A4); conditions: strain MH 12180
Method: (§5) The Minimum inhibitory concentrations (MIC) of compounds according to the invention were determined by the broth-microdilution method according to CLSI document VET01-A4.
(§6) Microdilution trays containing a doubling dilution series of the test compound were used for the tests.
as §4

[9] = system: Pasteurella multocida PM 14426 (0006-439, BRD field isolate, macrolide-resistant); assay: MIC, broth-microdilution (CLSI VET01-A4); conditions: strain PM 14426, macrolide-resistant
Method: as §5, §6, §4

[10] = system: Staphylococcus aureus SA 5816 (2139, mastitis field isolate); assay: MIC, broth-microdilution (CLSI VET01-A4); conditions: strain SA 5816
Method: as §5, §6, §4

[11] = system: Acinetobacter baumanii AB 16496 (ATCC 19606, reference strain); assay: MIC, broth-microdilution (CLSI VET01-A4); conditions: strain AB 16496
Method: as §5, §6, §4

[12] = system: Staphylococcus aureus SA 6114 (ATCC 29213, reference strain); assay: MIC, broth-microdilution (CLSI VET01-A4); conditions: strain SA 6114
Method: as §5, §6, §4

[13] = system: Acinetobacter baumanii AB 15919 (IV369-2012, dermatitis field isolate); assay: MIC, broth-microdilution (CLSI VET01-A4); conditions: strain AB 15919
Method: as §5, §6, §4

[14] = system: Pasteurella multocida PM 6391 (ATCC 43137, reference strain); assay: MIC, broth-microdilution (CLSI VET01-A4)
Summary of the method: (§7)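 Read-out is visual: the MIC is the lowest compound concentration at which no turbidity is seen by eye. Trays carried a doubling dilution series, with interpretation following CLSI VET01-S3.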

[15] = system: Mannheimia haemolytica MH 6357 (M7/2, reference strain, cattle infection strain); assay: MIC, broth-microdilution (CLSI VET01-A4)
Summary of the method: as §7

[16] = system: Pasteurella multocida PM 6267 (P 2225 (L386), reference strain, mouse infection strain); assay: MIC, broth-microdilution (CLSI VET01-A4)
Summary of the method: as §7

[17] = system: Mannheimia haemolytica MH 10720 (154, BRD field isolate); assay: MIC, broth-microdilution (CLSI VET01-A4); conditions: strain MH 10720
Summary of the method: as §7

[18] = system: Mannheimia haemolytica MH 6374 (ATCC 33396, reference strain); assay: MIC, broth-microdilution (CLSI VET01-A4)
Summary of the method: as §7

[19] = system: Pasteurella multocida PM 10775 (080130003051, BRD field isolate); assay: MIC, broth-microdilution (CLSI VET01-A4); conditions: strain PM 10775
Summary of the method: as §7

[20] = system: Mannheimia haemolytica MH 12587 (1071, BRD field isolate, macrolide-resistance: erm+, E+); assay: MIC, broth-microdilution (CLSI VET01-A4); conditions: Mannheimia haemolytica MH 12587, macrolide-resistant
Summary of the method: as §7

[21] = system: Pasteurella multocida PM 12080 (IV102277-0093, BRD field isolate); assay: MIC, broth-microdilution (CLSI VET01-A4)
Summary of the method: as §7

**Q.** With `C[C@@H](O)[C@H](NC(=O)c1ccc(C#Cc2ccc(CNCC(F)(F)F)cc2)cc1)C(=O)NO` [C. 467] as the compound, how does the MIC50 [1] read?
**A.** 0.125 µg/mL (≈ 0.278 µM)

**Q.** What about the MIC90 [1] of the same compound?
**A.** 0.25 µg/mL (≈ 0.556 µM)

**Q.** And the MIC50 [2]?
**A.** ≤0.016 µg/mL

**Q.** What about the MIC90 [2] of the same compound?
**A.** ≤0.016 µg/mL

**Q.** What about the MIC50 [3] of the same compound?
**A.** 0.032 µg/mL (≈ 0.0712 µM)

**Q.** What about the MIC90 [3] of the same compound?
**A.** 0.063 µg/mL (≈ 0.14 µM)

**Q.** What about the MIC50 [4] of the same compound?
**A.** 2 µg/mL (≈ 4.45 µM)

**Q.** What about the MIC90 [4] of the same compound?
**A.** 2 µg/mL (≈ 4.45 µM)

**Q.** And the MIC50 [5]?
**A.** ≤0.016 µg/mL

**Q.** What about the MIC90 [5] of the same compound?
**A.** ≤0.016 µg/mL

**Q.** And the MIC50 [6]?
**A.** 0.032 µg/mL (≈ 0.0712 µM)

**Q.** And the MIC90 [6]?
**A.** 0.063 µg/mL (≈ 0.14 µM)

**Q.** And the MIC [7]?
**A.** 0.4 µM (≈ 0.18 µg/mL)

**Q.** What about the MIC [8] of the same compound?
**A.** 0.032 µg/mL (≈ 0.0712 µM)

**Q.** What about the MIC [9] of the same compound?
**A.** ≤0.016 µg/mL

**Q.** What about the MIC [10] of the same compound?
**A.** >16 µg/mL

**Q.** What about the MIC [11] of the same compound?
**A.** >16 µg/mL

**Q.** And the MIC [12]?
**A.** >16 µg/mL

**Q.** And the MIC [13]?
**A.** >16 µg/mL

**Q.** What about the “MIC PM 6391” value ([14]; Pasteurella multocida PM 6391) of the same compound?
**A.** <=0.1 μM

**Q.** What about the MIC ([14]; strain PM 6391) of the same compound?
**A.** 0.032 µg/mL (≈ 0.0712 µM)

**Q.** What about the “MIC MH 6357” value ([15]; Mannheimia haemolytica MH 6357) of the same compound?
**A.** <=0.1 μM

**Q.** And the MIC ([15]; strain MH 6357)?
**A.** 0.125 µg/mL (≈ 0.278 µM)

**Q.** And the “MIC PM 6267” value ([16]; Pasteurella multocida PM 6267)?
**A.** <=0.1 μM

**Q.** And the MIC ([16]; strain PM 6267)?
**A.** 0.032 µg/mL (≈ 0.0712 µM)

**Q.** And the MIC [17]?
**A.** ≤0.016 µg/mL

**Q.** And the MIC ([18]; Mannheimia haemolytica MH 6374, read-out: MIC MH 6374)?
**A.** 0.2 µM

**Q.** And the MIC ([18]; strain MH 6374)?
**A.** 0.063 µg/mL

**Q.** And the MIC [19]?
**A.** ≤0.016 µg/mL

**Q.** What about the “MIC MH 12587” value [20] of the same compound?
**A.** 0.4 µM (≈ 0.18 µg/mL)

**Q.** And the “MIC PM 12080” value ([21]; Pasteurella multocida PM 12080)?
**A.** <=0.1 μM

**Q.** And the MIC ([21]; strain PM 12080)?
**A.** ≤0.016 µg/mL
